Source: patent US6716858B1, “Methods for inhibiting diabetic complications” (Kansas University Medical Center, priority 1995, dated 2004)
Where two headings read alike, the source gives them in different places.

How the values were obtained:
[1] = test system: glycation of ribonuclease A (RNase); assay: Uninterrupted glycation of ribonuclease A with glucose, anti-AGE ELISA; type: biochemical, bovine; conditions: RNase 1 mg/ml, 1.0 M glucose, 6 weeks; inhibitors 0.5, 3, 15 and 50 mM
Description: Uninterrupted Glycation with Glucose Bovine serum albumin, ribonuclease A, and human hemoglobin were incubated with glucose at 37° C. in 0.4 M sodium phosphate buffer of pH 7.5 containing 0.02% sodium azide. The protein, glucose (at 1.0 M), and prospective inhibitors (at 0.5, 3, 15 and 50 mM) were introduced into the incubation mixture simultaneously. Solutions were kept in the dark in capped tubes. Aliquots were taken and immediately frozen until analyzed by ELISA at the conclusion of the reaction. The incubations were for 3 weeks (Hb) or 6 weeks (RNase, BSA).
ELISA detection of AGE products. The general method of Engvall (1981, Methods Enzymol. 70:419-439) was used to perform the ELISA. Typically, glycated protein samples were diluted to approximately 1.5 ug/ml in 0.1 M sodium carbonate buffer of pH 9.5 to 9.7. […] In order to minimize background readings, antibodies R479 used to detect glycated RNase were raised against glycated BSA, and antibodies R618 used to detect glycated BSA and glycated Hb were raised against glycated RNase. […] The p-nitrophenylphosphate substrate solution was then added (200 ul/well) to the plates, with the absorbance of the released p-nitrophenolate being monitored at 410 nm with a Dynatech MR 4000 microplate reader.

[2] = test system: streptozotocin-induced diabetic rat; assay: STZ diabetic rat model, AGEs and crosslinking of collagen; type: in vivo; conditions: for CML, CEL or pentosidine content of kidney collagen / gain in kidney weight / FL in skin collagen, below untreated diabetic animals / decrease of CML, CEL and fluorescence content of skin collagen toward non-diabetic levels / reduction of half-time for digestion of collagen toward normal / body weight / CML concentration in skin collagen / half-time for pepsin digestion of skin collagen / CEL in renal basement membrane collagen / CML in renal basement membrane collagen / Pentosidine in renal basement membrane collagen: diabetic rats; for FL in skin collagen, below untreated diabetic animals: 1 g/L in drinking water, week 28; for decrease of CML, CEL and fluorescence content of skin collagen toward non-diabetic levels / reduction of half-time for digestion of collagen toward normal: 7 months of diabetes; for body weight: 28 weeks; for CML concentration in skin collagen: drug in drinking water, end of study, untreated diabetic 0.124±0.01, non-diabetic 0.057±0.01; for half-time for pepsin digestion of skin collagen: control 90, untreated diabetic 450; for CEL in renal basement membrane collagen: untreated diabetic 0.08 ±0.01; for CML in renal basement membrane collagen: untreated diabetic 0.25 ± 0.04; for Pentosidine in renal basement membrane collagen: untreated diabetic 3.17 ± 1.10; for decrease in collagen-linked fluorescence toward values in non-diabetic rats: skin collagen
Description: (§1) Animal studies. Diabetes was induced by a single tail vein injection of 45 mg/kg of STZ in 0.1 M sodium citrate buffer, pH 4.5. Control animals were sham injected with buffer only. Diabetes was confirmed by measuring blood glucose levels at 2 and 3 days after the STZ-injection. Animals with plasma glucose higher than 16 mM were classified as diabetic. The diabetic rats were divided randomly into an untreated diabetic group (n=12) and two diabetic treatment groups, receiving either PM (n=13) or AG (n=12) at 1 g/L in drinking water. Two non-diabetic control groups were included, one receiving no treatment (n=13), the other receiving PM(HCl)2 at 2 g/L in drinking water (n=12); the higher dose of PM in the PM-treated control group was designed to compensate, in part, for the lower water intake of non-diabetic, compared to diabetic animals. All animals were housed individually with a light dark cycle of 12 hours each, and had free access to food and water. To maintain body weight and to limit hyperglycemia, diabetic animals received 3 IU of ultralente insulin (Humulin U, Eli Lilly) three times per week; this was increased to 5 IU after week 15 to adjust for the increase in body weight.
Glycemic control. Glycemia was monitored by measurement of plasma glucose and glycated hemoglobin every four weeks, using a Sigma Trinder assay Kit (Sigma # 315). Blood (non-fasting) was obtained from the tail vein, using heparinized microhematocrit tubes, followed by sedimentation of red blood cells (RBC) in a bench-top microhematocrit centrifuge. A sample of plasma (5 μL) or glucose standard was mixed with 300 μL of reagent in a 96-well microtiter plate. The plate was shaken for 18 min and the absorbance at 490 nm was measured in a Wallac Victor 1420 multilabel counter (Wallac Inc. Gaithersburg, Md.). Glycated hemoglobin (GlcHb) was measured on whole blood by boronate affinity chromatography using a Sigma kit for total glycated hemoglobin (Sigma # 442-B).
Necropsy and tissue sampling. Rats were treated according to the guidelines of the Institutional Animal Care and Use Committee of the University of South Carolina. Blood was drawn from anaesthetized (halothane) rats by heart puncture and transferred into heparinized vacutainer tubes on ice; an aliquot was removed for analysis of glycated hemoglobin. Rats were then killed by over-anesthetization, and liver and kidneys were removed, the kidney decapsulated, and both organs rinsed in PBS buffer, and weighed. The right kidney was cut in half transversely, and one half was removed for fixation for electron and light microscopy. The remainder of the right kidney and the whole left kidney were frozen at −70° C. until processed for isolation of collagen. Abdominal skin (2 cm^2) was also removed, rinsed in phosphate buffered saline (PBS) and stored at −70° C. Blood was separated into plasma and RBC within 30 minutes by centrifugation in a refrigerated benchtop centrifuge. RBCs were lysed in an equal volume of deionized water, and plasma and RBC lysates were stored at −70° C.
Isolation and analysis of collagen. The insoluble fraction of skin collagen was prepared by scraping the skin with a single-edged razor blade to remove hair and adventitious tissue, followed by a series of extractions with 0.5 M NaCl, 0.5 M acetic acid and chloroform/methanol (2:1 v/v), as described previously (Dyer, et al. 1993. J. Clin. Invest. 91:2463-2469). Total renal collagen was prepared from ˜1.5 kidneys by an adaptation of the procedure of Fox et al. (J. Biol. Chem. 256:9313-9315 (1981)). Briefly, kidneys were minced and homogenized with a hand-held glass homogenizer in 10 mL of ice-cold water, containing 1 mM EDTA and 0.05% sodium azide. Remaining intact cells and subcellular organelles were then lysed by addition of another 15 mL of water, followed by incubation for 1 hour at 4° C., then centrifugation of the lysate for 30 minutes at 10,000 rpm at 4° C. in a Beckman (Palo Alto, Calif.) J-21 centrifuge. […]

[3] = Drug and metabolite levels in plasma and urine, STZ diabetic rat study; type: in vivo; conditions: for concentration at 28 weeks / concentration at 21 week: rat, plasma, oral; for concentration at 28 weeks: diabetic animals; for concentration at 21 week: week 21, 4 animals, read-out: Pyridoxamine in plasma
Description: as §1
Measurement of drug levels in plasma and urine. PM and AG concentrations in plasma were measured by reverse phase high performance liquid chromatography (RP-HPLC). PM and its B6 vitamers were assayed as described by Sampson and O'Connor (Nutrition Res. 9:259-272 (1989)) and Sakurai et al. (J. Nutr. Sci. Vitaminol. 37:341-348 (1991)), using 293/393 nm excitation and emission wavelengths. AG was quantified at 380 nm as the 4-nitrobenzaldehyde conjugate (Beaven et al. 1969. J. Pharmacol. Exp. Therapeutics 165:14-22).

Row | SMILES | inhibition of antigenic AGE formation (ELISA) [1] | CML, CEL or pentosidine content of kidney collagen [2] | gain in kidney weight [2] | FL in skin collagen, below untreated diabetic animals [2] [%] | decrease of CML, CEL and fluorescence content of skin collagen toward non-diabetic levels [2] [%] | reduction of half-time for digestion of collagen toward normal [2] [%] | body weight [2] | CML concentration in skin collagen [2] [mmol/mol lysine] | half-time for pepsin digestion of skin collagen [2] [min] | CEL in renal basement membrane collagen [2] | CML in renal basement membrane collagen [2] [mmol/mol Lys] | Pentosidine in renal basement membrane collagen [2] | decrease in collagen-linked fluorescence toward values in non-diabetic rats [2] [%] | concentration at 28 weeks ([3]; 1 g/L in drinking water) [µM] | urinary PM ([3]; 23 weeks, PM intake 801±22 μmol/day) [µmol/day] | plasma PM concentration ([3]; non-diabetic animals, PM(HCl)2 2 g/L in drinking water, from first week) [µM] | concentration at 21 week ([3]; 1 g/L in drinking water, Diabetic + PM (1 g/L)) [µM] | concentration at 21 week ([3]; 2 g/L in drinking water, Control + PM (2 g/L)) [µM]
1 | Cc1ncc(C[n+]2csc(CCO[P@](=O)(O)OP(=O)(O)O)c2C)c(N)n1 [thiamine pyrophosphate] | more effective that aminoguanidine | – | – | – | – | – | – | – | – | – | – | – | – | – | – | – | – | –
2 | N=C(N)NN [aminoguanidine, reference compound] | – | not a significant decrease | partially inhibit the gain in kidney weight | ~12 | ~50 | ~25 | weighed slightly less than the untreated diabetic group | 0.10±0.02 | 300 | 0.07 ± 0.008^C mmol/mol Lys | 0.24 ± 0.05 | 2.47 ± 0.64^D μmol/mol Lys | ~40 | 87 ± 10 | – | – | – | –
3 | Cc1ncc(CO)c(CN)c1O [pyridoxamine] | more effective that aminoguanidine | not a significant decrease | partially inhibit the gain in kidney weight | ~12 | ~50 | ~25 | weighed slightly less than the untreated diabetic group | 0.092±0.02 | 350 | 0.08 ± 0.008 mmol/mol Lys | 0.23 ±0.03 | 3.00 ± 0.90 μmol/mol Lys | ~40 | 106 ± 17 | 824 ± 44 | ~6 | 76 ± 18 | 6.3 ± 2.1
